ChEMBL document CHEMBL5523757, “Discovery, Synthesis, and Activity Evaluation of Novel Five-Membered Sulfur-Containing Heterocyclic Nucleosides as Potential Anticancer Agents In Vitro and In Vivo” (J Med Chem, 2024)

Experiments:
[1] = test system: HCT-116; test: Antiproliferative activity against human HCT-116 cells assessed as inhibition of cell growth incubated for 48 hrs by CCK-8 assay; format: functional, cell-based; conditions: Homo sapiens, HCT-116, 48 h
[2] = Acute toxicity in female BALB/c mouse assessed as animal death at 200 to 1000 mg/kg,ip observed for 4 to 15 days; format: organism-based; conditions: in vivo, dose lower 200 mg/kg, time lower 4 day, dose upper 1000 mg/kg, time upper 15 day
[3] = Toxicity in BALB/c mouse xenografted with human HeLa cells assessed as histopathological change in liver at 15 to 60 mg/kg,ip once daily for 14 days by hematoxylin and eosin staining analysis; format: organism-based; conditions: in vivo, 336 h, dose 15-60 mg/kg, time 14 day
[4] = test system: PANC-1; test: Antiproliferative activity against human PANC-1 cells assessed as inhibition of cell growth incubated for 48 hrs by CCK-8 assay; format: functional, cell-based; conditions: panc-1
[5] = Acute toxicity in BALB/c mouse assessed as lethal dose at ip administration observed after 14 days; format: organism-based; conditions: in vivo, time 14 day
[6] = Acute toxicity in male BALB/c mouse assessed as animal death at 200 to 1000 mg/kg,ip observed for 4 to 15 days; format: organism-based; conditions: in vivo, dose lower 200 mg/kg, time lower 4 day, dose upper 1000 mg/kg, time upper 15 day
[7] = Acute toxicity in BALB/c mouse assessed as animal survival at 800 mg/kg,ip observed after 14 days; format: organism-based; conditions: in vivo, time 14 day
[8] = Acute toxicity in female BALB/c mouse assessed as animal death at 200 to 400 mg/kg,ip observed after 1 day; format: organism-based; conditions: in vivo, 24 h, dose 200-400 mg/kg
[9] = Toxicity in BALB/c mouse xenografted with human HeLa cells assessed as histopathological change in lung at 15 to 60 mg/kg,ip once daily for 14 days by hematoxylin and eosin staining analysis; format: organism-based; conditions: in vivo, 336 h, dose 15-60 mg/kg, time 14 day
[10] = Toxicity in BALB/c mouse xenografted with human HeLa cells assessed as histopathological change in spleen at 15 to 60 mg/kg,ip once daily for 14 days by hematoxylin and eosin staining analysis; format: organism-based; conditions: in vivo, 336 h, dose 15-60 mg/kg, time 14 day
[11] = test system: HeLa; test: Induction of apoptosis in human HeLa cells at 2 to 8 uM incubated for 48 hrs by annexin V-FITC/PI staining based flow cytometry relative to control; format: functional; conditions: dose 2-8 µM
[12] = test system: A549; test: Antiproliferative activity against human A549 cells assessed as inhibition of cell growth incubated for 48 hrs by CCK-8 assay; format: functional, cell-based; conditions: Homo sapiens, A549, 48 h
[13] = Acute toxicity in female BALB/c mouse assessed as animal death at 200 to 600 mg/kg,ip observed after 2 day; format: organism-based; conditions: in vivo, 48 h, dose 200-600 mg/kg
[14] = test system: HepG2; test: Antiproliferative activity against human HepG2 cells assessed as inhibition of cell growth incubated for 48 hrs by CCK-8 assay; format: functional, cell-based; conditions: Homo sapiens, HepG2, 48 h
[15] = Acute toxicity in male BALB/c mouse assessed as animal death at 200 to 600 mg/kg,ip observed after 2 day; format: organism-based; conditions: in vivo, 48 h, dose 200-600 mg/kg
[16] = Toxicity in BALB/c mouse xenografted with human HeLa cells assessed as histopathological change in kidney at 15 to 60 mg/kg,ip once daily for 14 days by hematoxylin and eosin staining analysis; format: organism-based; conditions: in vivo, 336 h, dose 15-60 mg/kg, time 14 day
[17] = Half life in BALB/c mouse plasma at 10 to 200 uM; format: ADME, cell-free; conditions: dose 10-200 µM
[18] = test system: MCF7; test: Antiproliferative activity against human MCF7 cells assessed as inhibition of cell growth incubated for 48 hrs by CCK-8 assay; format: functional, cell-based; conditions: Homo sapiens, MCF7, 48 h
[19] = Toxicity in BALB/c mouse xenografted with human HeLa cells assessed as histopathological change in heart at 15 to 60 mg/kg,ip once daily for 14 days by hematoxylin and eosin staining analysis; format: organism-based; conditions: in vivo, 336 h, dose 15-60 mg/kg, time 14 day
[20] = Acute toxicity in BALB/c mouse assessed as animal survival at 200 mg/kg,ip observed after 14 days; format: organism-based; conditions: in vivo, time 14 day
[21] = Acute toxicity in BALB/c mouse assessed as animal survival at 1000 mg/kg,ip observed after 14 days; format: organism-based; conditions: in vivo, time 14 day
[22] = Acute toxicity in male BALB/c mouse assessed as animal death at 200 to 400 mg/kg,ip observed after 1 day; format: organism-based; conditions: in vivo, 24 h, dose 200-400 mg/kg
[23] = Toxicity in BALB/c mouse xenografted with human HeLa cells assessed as change in body weight at 15 to 60 mg/kg,ip once daily for 14 days; format: organism-based; conditions: in vivo, 336 h, dose 15-60 mg/kg, time 14 day
[24] = Acute toxicity in female BALB/c mouse assessed as animal death at 200 to 1000 mg/kg,ip observed after 3 days; format: organism-based; conditions: in vivo, 72 h, dose 200-1000 mg/kg, time 3 day
[25] = test system: HeLa; test: Antiproliferative activity against human HeLa cells assessed as inhibition of cell growth incubated for 48 hrs by CCK-8 assay; format: functional, cell-based; conditions: hela
[26] = Acute toxicity in BALB/c mouse assessed as animal survival at 600 mg/kg,ip observed after 14 days; format: organism-based; conditions: in vivo, time 14 day
[27] = Acute toxicity in BALB/c mouse assessed as animal survival at 400 mg/kg,ip observed after 14 days; format: organism-based; conditions: in vivo, time 14 day
[28] = Acute toxicity in female BALB/c mouse assessed as animal death at 1000 mg/kg,ip observed after 2 day; format: organism-based; conditions: in vivo, 48 h
[29] = Acute toxicity in male BALB/c mouse assessed as animal death at 200 to 1000 mg/kg,ip observed after 3 days; format: organism-based; conditions: in vivo, 72 h, dose 200-1000 mg/kg, time 3 day

For `CCOC(=O)C[C@H]1CSC[C@]1(C(=O)OCC)n1cnc2c(Cl)nc(Cl)nc21` (racemic), the IC50 [1] was 3.82 µM, the Activity [2] was “Non-Toxic” and the Activity [3] was “Non-Toxic”. For the same molecule, the IC50 [4] was 13 µM, the LD50 at 336 h [5] was 613 mg/kg and the Activity [6] was “Non-Toxic”. For the same molecule, the survival at 336 h [7] was 10%, the Activity [8] was “Non-Toxic” and the Activity [9] was “Non-Toxic”. For the same molecule, the Activity [10] was “Non-Toxic”, the Activity [11] was 8.05% and the IC50 [12] was 46 µM. The Activity [13] was “Non-Toxic”, the IC50 [14] was 32.7 µM and the Activity [15] was “Non-Toxic”. For the same molecule, the Activity [16] was “Non-Toxic”, the half-life at up to 200 µM [17] was 3 h and the IC50 [18] was 5.54 µM. For the same molecule, the Activity [19] was “Non-Toxic”, the survival at 336 h [20] was 100% and the survival at 336 h [21] was 0%. For the same molecule, the Activity [22] was “Non-Toxic”, the Activity [23] was “Non-Toxic” and the Activity [24] was “Non-Toxic”. The IC50 [25] was 2.8 µM, the survival at 336 h [26] was 50% and the survival at 336 h [27] was 100%. The Activity [28] was “Non-Toxic” and the Activity [29] was “Non-Toxic”.
